Experimental findings from patent US6803374B2, “Compounds useful for treating hepatitis C virus” (priority 2001, dated 2004) are described below.

In the experiment the target is T1, HCV NS5B RdRp genotype 1b (Hepatitis C virus genotype 1b, UniProt Q9WMX2).
T1 construct: The protein was expressed with an 18 amino acid C-terminal truncation to enhance the solubility; made in house; host or cells: E. coli BL21(DE3)
T1 sequence (Q9WMX2 2420-2992): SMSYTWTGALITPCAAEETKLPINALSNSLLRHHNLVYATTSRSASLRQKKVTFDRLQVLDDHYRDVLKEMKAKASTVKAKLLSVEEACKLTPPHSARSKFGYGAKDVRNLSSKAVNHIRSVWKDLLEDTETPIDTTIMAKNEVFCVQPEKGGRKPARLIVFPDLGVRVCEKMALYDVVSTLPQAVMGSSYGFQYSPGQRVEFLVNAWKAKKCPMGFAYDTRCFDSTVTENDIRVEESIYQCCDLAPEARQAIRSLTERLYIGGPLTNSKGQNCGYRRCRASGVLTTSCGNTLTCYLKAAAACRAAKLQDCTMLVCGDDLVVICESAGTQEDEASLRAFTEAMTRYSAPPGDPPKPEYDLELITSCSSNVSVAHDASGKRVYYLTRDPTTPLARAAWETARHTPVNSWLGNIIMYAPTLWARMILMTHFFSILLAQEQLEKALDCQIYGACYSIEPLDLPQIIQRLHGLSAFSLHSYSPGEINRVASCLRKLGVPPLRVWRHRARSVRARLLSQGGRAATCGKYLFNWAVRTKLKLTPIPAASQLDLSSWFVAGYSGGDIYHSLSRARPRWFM
Kind of experiment: HCV NS5B RdRp enzyme assay. The settings on record: IC50, HCV RdRp genotype 1b enzyme, C-terminal 18 aa truncated; average of single point IC50 values. Format: biochemical. As for the experimental part:
HCV NS5B RdRp cloning, expression and purification. The cDNA encoding the NS5B protein of HCV, genotype 1b, was cloned into the pET21a expression vector. The protein was expressed with an 18 amino acid C-terminal truncation to enhance the solubility. The E. coli competent cell line BL21(DE3) was used for expression of the protein. Cultures were grown at 37° C. for ˜4 hours until the cultures reached an optical density of 2.0 at 600 nm. The cultures were cooled to 20° C. and induced with 1 mM IPTG. Fresh ampicillin was added to a final concentration of 50 ug/ml and the cells were grown overnight at 20° C.
Cell pellets (3L) were lysed for purification to yield 15-24 mgs of purified NS5B. The lysis buffer consisted of 20 mM Tris-HCl, pH 7.4, 500 mM NaCl, 0.5% triton X-100, 1 mM DTT, 1 mM EDTA, 20% glycerol, 0.5 mg/ml lysozyme, 10 mM MgCl2, 15 ug/ml deoxyribonuclease I, and Complete TM protease inhibitor tablets (Roche). After addition of the lysis buffer, frozen cell pellets were resuspended using a tissue homogenizer. To reduce the viscosity of the sample, aliquots of the lysate were sonicated on ice using a microtip attached to a Branson sonicator. The sonicated lysate was centrifuged at 100,000×g for 1 hr at 4° C. and filtered through a 0.2 μm filter unit (Corning).
The protein was purified using three sequential chromatography steps: Heparin sepharose CL-6B, polyU sepharose 4B, and Hitrap SP sepharose (Pharmacia). The chromatography buffers were identical to the lysis buffer but contained no lysozyme, deoxyribonuclease I, MgCl2 or protease inhibitor and the NaCl concentration of the buffer was adjusted according to the requirements for charging the protein onto the column. Each column was eluted with a NaCl gradient which varied in length from 5-50 column volumes depending on the column type. After the final chromatography step, the resulting purity of the enzyme is >90% based on SDS-PAGE analysis. The enzyme was aliquoted and stored at −80° C.
HCV NS5B RdRp enzyme assay. HCV RdRp genotype 1b assays were run in assay buffer composed of 20 mM Tris-HCl, pH 7.5, 2.5 mM KCl, 5 mM MgCl2, 1 mM DTT, 1.6 U RNAse inhibitor (Promega N2515), in 96 well plates (Falcon 3918). All compounds were serially diluted in DMSO and diluted further in assay buffer such that the final concentration of DMSO in the assay was 2%. Compounds were serially diluted (3-fold each time) for a 7 point inhibition analysis. HCV RdRp genotype 1b enzyme was used at a final concentration of 28 nM. A polyA template was used at 28 nM, and the oligo-dT12-18 primer was used at 840 nM final concentration. Preannealed primer and template were obtained commercially (Amersham 27-787802). ^3H-UTP was used at 0.125 μCi (1 μM total UTP). Reaction was initiated by the addition of enzyme. Reactions were incubated at 30° C. for 45 min, and stopped by adding 30 ul of 20% ice cold TCA. Plates were chilled for 30 minutes and harvested onto Unifilter-96, GF/B plates (Packard, 6005177) using a Packard FilterMate Cell Harvester. The harvest plates were prewashed 3 times, 200 ul/well, with 100 mM NaPPi. Harvested filters were washed 30 times, 200 ul/well, with distilled water followed by ethanol. Filter plates were dried, and 30 ul/well microscint-20 was added. Plates were read on a Packard Top Count NXT.
The IC50 values for compounds were determined using […] different [I], combined with 7 nM enzyme, 800 ng of the template-primer polyC/oligoG12 (1:5 molar ratio), and 0.7 uM of ^3H GTP containing 1 uCi. The observed fractional activity (fa=vi/vo) was used in the equation IC50=[I]/(1/fa-1) to determine a single point IC50 value. Typically, the single point IC50 values derived from [I] that produced fractional activities in the range of 0.1 to 0.8 relative to the uninhibited control were averaged to calculate the IC50 value for each compound.
`COc1ccccc1-c1nc(COc2ccc(-c3nc4cc(-c5nnn[nH]5)ccc4n3C3CCCCC3)cc2)no1` [Example 5, 1-Cyclohexyl-2-[4-[5-(2-methoxyphenyl)-1,2,4-oxadiazol-3-ylmethoxy]phenyl]-5-[1H-tetrazol-5-yl]-1H-benzimidazole]: half-maximal inhibition (IC50) required 360 nM.

For `O=C(c1ccc(-c2cccc(O)c2)c(COc2ccc(-c3nc4cc(-c5nnn[nH]5)ccc4n3C3CCCCC3)cc2)c1)N1CCCC1` [Example 66], the IC50 (commonly the concentration that gives 50% inhibition) is 1400 nM.

`O=C(NCCCO)c1ccc(-c2ccc(F)c(Cl)c2)c(COc2ccc(-c3nc4cc(-c5nnn[nH]5)ccc4n3C3CCCCC3)cc2)c1` [Example 78] had an IC50 of 690 nM.

In the case of `O=C(O)c1ccc(-c2ccc(F)c(Cl)c2)c(COc2ccc(-c3nc4cc(-c5nnn[nH]5)ccc4n3C3CCCCC3)cc2)c1` [Example 30], the IC50 worked out at 40 nM. Against the preceding compound, the IC50 is about 17-fold lower.

In the case of `O=C(O)c1ccc(-c2cc3ccccc3s2)c(COc2ccc(-c3nc4cc(-c5nnn[nH]5)ccc4n3C3CCCCC3)cc2)c1` [Example 119], inhibition was half-maximal at 30 nM (IC50).

The compound `O=C(NC(Cc1ccc(O)cc1)C(=O)O)c1ccc(-c2ccsc2)c(COc2ccc(-c3nc4cc(-c5nnn[nH]5)ccc4n3C3CCCCC3)cc2)c1` (stereo not drawn) [Example 129] returned an IC50 of 290 nM.

On to `CC(=O)c1ccc(-c2ccc(C(=O)O)cc2COc2ccc(-c3nc4cc(-c5nnn[nH]5)ccc4n3C3CCCCC3)cc2)cc1` [Example 45], for which inhibition was half-maximal at 80 nM (IC50). This IC50 is about 3.6-fold lower than that of the compound before.

In turn, `O=C(O)CNC(=O)c1ccc(-c2ccsc2)c(COc2ccc(-c3nc4cc(-c5nnn[nH]5)ccc4n3C3CCCCC3)cc2)c1` [Example 143] displayed an IC50 of 80 nM.

Consider `O=C(O)c1ccc(-c2cc3ccccc3o2)c(COc2ccc(-c3nc4cc(-c5nnn[nH]5)ccc4n3C3CCCCC3)cc2)c1` [Example 116], for which half-maximal inhibition (IC50) required 170 nM.

In the case of `O=c1[nH]c(-c2ccc3c(c2)nc(-c2ccc(OCc4ccccc4)cc2)n3C2CCCCC2)no1` [Example 10, 3-{2-[4-(Benzyloxy)phenyl]-1-cyclohexyl-1H-benzimidazol-5-yl}-1,2,4-oxadiazol-5(4H)-one], inhibition was half-maximal at 850 nM (IC50).

For the compound `CC(NC(=O)c1ccc(-c2cccc(O)c2)c(COc2ccc(-c3nc4cc(-c5nnn[nH]5)ccc4n3C3CCCCC3)cc2)c1)C(=O)O` (stereo not drawn) [Example 52], the midpoint of inhibition, the IC50, lay at 470 nM.

For `O=C(O)c1ccc(-c2cccc(O)c2)c(COc2ccc(-c3nc4cc(-c5nnn[nH]5)ccc4n3C3CCCCC3)cc2)c1` [Example 33], the IC50 was 40 nM. This IC50 is about 12-fold lower than that of the compound before.

Consider `CNC(=O)c1ccc(-c2ccsc2)c(COc2ccc(-c3nc4cc(-c5nnn[nH]5)ccc4n3C3CCCCC3)cc2)c1` [Example 136], for which half-maximal inhibition (IC50) was put at 220 nM. Compared with the last compound, the IC50 is about 5.5-fold higher.

`CC(C)(C)OC(=O)C(Cc1ccc(O)cc1)NC(=O)c1ccc(-c2ccsc2)c(COc2ccc(-c3nc4cc(-c5nnn[nH]5)ccc4n3C3CCCCC3)cc2)c1` (stereo not drawn) [Example 140] showed an IC50 of 2150 nM.

Compound `COc1ccc(-c2ccc(C(=O)NCC(=O)O)cc2COc2ccc(-c3nc4cc(-c5nnn[nH]5)ccc4n3C3CCCCC3)cc2)cc1OC` [Example 98] registered an IC50 of 210 nM.

In turn, `O=C(O)c1ccc(-c2cncnc2)c(COc2ccc(-c3nc4cc(-c5nnn[nH]5)ccc4n3C3CCCCC3)cc2)c1` [Example 4, 3-[[4-[1-Cyclohexyl-5-(1H-tetrazol-5-yl)-1H-benzimidazol-2-yl]phenoxy]methyl]-4-(5-pyrimidinyl)benzoic acid] yielded an IC50 of 630 nM.

Turning to `O=C(c1ccc(-c2ccsc2)c(COc2ccc(-c3nc4cc(-c5nnn[nH]5)ccc4n3C3CCCCC3)cc2)c1)N1CCCC1` [Example 134], half-maximal inhibition (IC50) was put at 370 nM.

For `CC(NC(=O)c1ccc(-c2ccc(F)c(Cl)c2)c(COc2ccc(-c3nc4cc(-c5nnn[nH]5)ccc4n3C3CCCCC3)cc2)c1)C(=O)O` (stereo not drawn) [Example 56], half-maximal inhibition (IC50) required 190 nM.

In the case of `COc1ccc(-c2ccc(C(=O)NCCCO)cc2COc2ccc(-c3nc4cc(-c5nnn[nH]5)ccc4n3C3CCCCC3)cc2)cc1OC` [Example 90], the IC50 was found to be 630 nM.

`O=C(O)CC(=O)NS(=O)(=O)c1ccc2c(c1)nc(-c1ccc(OCc3ccccc3)cc1)n2C1CCCCC1` [Example 20, 3-[2-(4-Benzyloxy-phenyl)-1-cyclohexyl-1H-benzoimidazole-5-sulfonylamino]-3-oxo-propionic acid] registered an IC50 of 8200 nM. This IC50 is about 13-fold higher than that of the compound before.

Turning to `CSc1ccc(-c2ccc(C(=O)O)cc2COc2ccc(-c3nc4cc(-c5nnn[nH]5)ccc4n3C3CCCCC3)cc2)cc1` [Example 26], the IC50 turned out to be 190 nM.

As to `CC(C)(C)OC(=O)CNC(=O)c1ccc(-c2ccsc2)c(COc2ccc(-c3nc4cc(-c5nnn[nH]5)ccc4n3C3CCCCC3)cc2)c1` [Example 141], the IC50 turned out to be 2800 nM.

With `CNC(=O)c1ccc(-c2ccc(F)c(Cl)c2)c(COc2ccc(-c3nc4cc(-c5nnn[nH]5)ccc4n3C3CCCCC3)cc2)c1` [Example 79], the IC50 worked out at 550 nM.

Take `COc1ccc(-c2ccc(C(=O)N3CCOCC3)cc2COc2ccc(-c3nc4cc(-c5nnn[nH]5)ccc4n3C3CCCCC3)cc2)cc1OC` [Example 88]: the IC50 worked out at 470 nM.

Regarding `O=C(O)c1ccc(-c2ccc(C(F)(F)F)cc2)c(COc2ccc(-c3nc4cc(-c5nnn[nH]5)ccc4n3C3CCCCC3)cc2)c1` [Example 31], 60 nM corresponded to half-maximal inhibition (IC50). Against the preceding compound, the IC50 is about 7.8-fold lower.

The compound `NC(=O)CCNC(=O)c1ccc(-c2cccc(O)c2)c(COc2ccc(-c3nc4cc(-c5nnn[nH]5)ccc4n3C3CCCCC3)cc2)c1` [Example 55] yielded an IC50 of 200 nM.

`CC(C)(C)OC(=O)C(Cc1ccc(O)cc1)NC(=O)c1ccc(-c2ccc(F)c(Cl)c2)c(COc2ccc(-c3nc4cc(-c5nnn[nH]5)ccc4n3C3CCCCC3)cc2)c1` (stereo not drawn) [Example 83] returned an IC50 of 560 nM. Compared with the last compound, the IC50 is about 2.8-fold higher.

`N#Cc1ccc(-c2ccc(C(=O)N3CCC(O)CC3)cc2COc2ccc(-c3nc4cc(-c5nnn[nH]5)ccc4n3C3CCCCC3)cc2)cc1` [Example 149] displayed an IC50 of 220 nM.

`O=C(O)c1ccc(-c2cccc3cccnc23)c(COc2ccc(-c3nc4cc(-c5nnn[nH]5)ccc4n3C3CCCCC3)cc2)c1` [Example 123] displayed an IC50 of 440 nM. Compared with the last compound, the IC50 is about 2-fold higher.

`O=C(O)c1ccc(C(=O)NS(=O)(=O)c2ccc3c(c2)nc(-c2ccc(OCc4ccccc4)cc2)n3C2CCCCC2)cc1` [Example 18, 4-[2-(4-Benzyloxyphenyl)-1-cyclohexyl-1H-benzimidazole-5-sulfonylaminocarbonyl]-benzoic acid] returned an IC50 of 1520 nM.

Turning to `COc1ccc(-c2ccc(C(=O)N(CCO)CCO)cc2COc2ccc(-c3nc4cc(-c5nnn[nH]5)ccc4n3C3CCCCC3)cc2)cc1OC` [Example 93], it took 690 nM to reach half-maximal inhibition (IC50).

`CC(C)(C)OC(=O)CNC(=O)c1ccc(-c2ccc(F)c(Cl)c2)c(COc2ccc(-c3nc4cc(-c5nnn[nH]5)ccc4n3C3CCCCC3)cc2)c1` [Example 84] yielded an IC50 of 1200 nM.

In turn, `O=C(c1ccc(-c2ccsc2)c(COc2ccc(-c3nc4cc(-c5nnn[nH]5)ccc4n3C3CCCCC3)cc2)c1)N(CCO)CCO` [Example 138] displayed a half-maximal inhibitory concentration (IC50) of 3000 nM.

Compound `O=C(O)c1ccc(-c2ccsc2)c(COc2ccc(-c3nc4cc(-c5nnn[nH]5)ccc4n3C3CCCCC3)cc2)c1` [Example 115] yielded an IC50 of 40 nM.

In turn, `CNC(=O)c1ccc(-c2ccc(Cl)cc2)c(COc2ccc(-c3nc4cc(-c5nnn[nH]5)ccc4n3C3CCCCC3)cc2)c1` [Example 50] registered an IC50 of 230 nM.

In turn, `CN(C)C(=O)c1ccc(-c2ccc3[nH]cc(C(=O)C(F)(F)F)c3c2)c(COc2ccc(-c3nc4cc(-c5nnn[nH]5)ccc4n3C3CCCCC3)cc2)c1` [Example 152] gave an IC50 of 420 nM.
